Values belong to the molecule of their own block, whether it stands above or below them.
How the values were obtained:
[1] = Stability test experiment A: suspended and stirred in water, XRPD; assay type: physicochemical; settings: for Crystal form (XRPD) after stirring in water: suspended and stirred in water at room temperature for 24 h
Method: At room temperature, the test samples (50 mg) were added into EP tubes, water (1 mL) was added respectively. The mixture was suspended and stirred at room temperature for 24 h, then suction filtered, and dried for X-ray powder diffraction (XRPD) analysis and identification. Among them, the experimental results of phosphate crystal form A, phosphate crystal form B, phosphate crystal form C, phosphate crystal form G and phosphate crystal form H are shown in FIGS. 20-24.

Hygroscopicity test = assay type: physicochemical; settings: 25° C. ± 1° C., RH 80% ± 2%, 24 hours
Method: 1) A dry stoppered glass weighing bottle was placed in a suitable constant temperature desiccator (RH 80% ± 2%) at 25° C. + 1° C. the day before, and accurately weighed (m1).
2) An appropriate amount of the test sample was taken and spread in the above weighing bottle. The thickness of the test sample was generally about 1 mm, and it was precisely weighed (m2).
3) The weighing bottle was opened and placed together with the bottle cap under the above constant temperature and humidity conditions for 24 hours.
4) The weighing bottle was closed with the bottle cap, and accurately weighed (m3). Calculate: weight gain % = (m3-m2) / (m2-m1) × 100%.
5) Judgment of hygroscopicity results (Chinese Pharmacopoeia 2015 Edition Appendix 9103 Guidelines for the hygroscopicity test of drugs, experimental conditions: 25° C.±1° C., 80%±2% relative humidity): […]

[2] = Pharmacokinetics test in Beagle dogs, oral capsules; assay type: in vivo; settings: male Beagle dogs, oral capsule, 5 mg/kg
Method: The test samples were filled into capsules for oral administration.
Three 8-12 kg male Beagle dogs were taken orally administered capsules containing the test sample at a dose of 5 mg/kg, and blood was collected at time points of 0.25, 0.5, 1.0, 2.0, 4.0, 6.0, 8.0 and 24 h. Standard curve was plotted based on concentrations of the samples in a suitable range, the concentration of the test sample in the plasma sample was measured and quantified by AB SCIEX API4000 LC-MS / MS at MRM mode. Pharmacokinetic parameters were calculated according to drug concentration -time curve using a noncompartmental method by WinNonLin 6.3 software.

[3] = Stability test experiment C: storage in PE bag and aluminum foil; assay type: physicochemical; settings: for Purity: HPLC
Method: 1.0 g of the test samples were packaged in a single-layer PE bag and aluminum foil, and fasten with cable ties. 6 packs were prepared in total and put in a stable box (40° C. ± 2° C., RH 75% ± 5%, or 25° C. ± 2° C., RH 60% ± 10%). Test samples were taken at 0, 3, and 6 months for HPLC and XRPD detection, respectively.

[4] = Stability test experiment B: high temperature, high humidity and light tests; assay type: physicochemical; settings: for Purity: HPLC
Method: (§1) (1) High temperature test: the test samples were taken into the flat weighing bottle, spread into a thin layer of ≤ 5 mm thick, and stored for 30 days at a humidity of 75% ± 5%, 40° C. ± 2° C. and/or 60° C. ± 2° C. On the 5th, 10th, and 30th days, samples were taken for detection according to the key stability inspection items: the color change of the sample was observed, the purity of the sample was determined by HPLC, and the crystal structure of the sample was determined by XRPD.
as §1, with “(2)” for “(1)”, “humidity” for “temperature”, “25° C., RH 90% ± 5% and/or RH” for “a humidity of”, “5%.” for “5%, 40° C. ± 2° C. and/or 60° C. ± 2° C.”
(3) Light test: the test samples were taken into the flat weighing bottle, spread into a thin layer of ≤ 5 mm thick, and placed in a light box (with an ultraviolet lamp) with an open mouth. The test samples were stored under the condition of illuminance of 4500 ± 5001x and ultraviolet light ≥ 0.7w/m^2 for 30 days. Samples were taken on the 5th, 10th and 30th days. The color change of the sample was observed, the purity of the sample was determined by HPLC, and the crystal structure of the sample was determined by XRPD.

[5] = 25° C. ± 2° C., RH 60% ±10%, 3 months
[6] = 25° C. ± 2° C., RH 60% ±10%, 6 months
[7] = 40° C. ± 2° C., RH 75% ±5%, 3 months
[8] = 40° C. ± 2° C., RH 75% ±5%, 6 months
[9] = High humidity (25° C., RH 90% ± 5%), 5 days
[10] = High humidity (25° C., RH 90% ± 5%), 10 days
[11] = High humidity (25° C., RH 90% ± 5%), 30 days
[12] = High temperature (60° C., RH 75%±5%), 5 days
[13] = High temperature (60° C., RH 75%±5%), 10 days
[14] = High temperature (60° C., RH 75%±5%), 30 days

Crystal structure after stirring in water ([1]; stirred in water at room temperature or under heating conditions): does not change
Crystal form (XRPD) after stirring in water ([1]; listed as phosphate crystal form A): crystal form did not change
The hygroscopicity gain (Hygroscopicity test): 0.32%
Cmax ([2]; dog, plasma): 496 ng/mL
Tmax ([2]; dog, plasma): 1.67 h
AUClast [2]: 5240 h^∗ng/ml
Outward ([3]; 0 month): Light yellow solid
Purity ([3]; 0 month): 99.62%
Outward [3, 5]: Light yellow solid
Purity [3, 5]: 99.63%
Outward [3, 6]: Light yellow solid
Purity [3, 6]: 99.64%
Outward [3, 7]: Light yellow solid
Purity [3, 7]: 99.63%
Outward [3, 8]: Light yellow solid
Purity [3, 8]: 99.64%
Crystal structure (XRPD) ([3]; stored up to 6 months at 40° C./RH 75% or 25° C./RH 60% in PE bag and aluminum foil): have not changed
Outward ([4]; 0 day): Light yellow solid
Purity ([4]; 0 day): 99.24%
Outward [4, 9]: Light yellow solid
Purity [4, 9]: 99.27%
Outward [4, 10]: Light yellow solid
Purity [4, 10]: 99.21%
Outward [4, 11]: Light yellow solid
Purity [4, 11]: 99.22%
Outward [4, 12]: Light yellow solid
Purity [4, 12]: 99.26%
Outward [4, 13]: Light yellow solid
Purity [4, 13]: 99.23%
Outward [4, 14]: Light yellow solid
Purity [4, 14]: 99.24%
Outward ([4]; Light, 5 days): Yellow solid
Purity ([4]; Light, 5 days): 99.25%
Outward ([4]; Light, 10 days): Yellow solid
Purity ([4]; Light, 10 days): 99.21%
Outward ([4]; Light, 30 days): Yellow solid
Purity ([4]; Light, 30 days): 99.10%
XRPD pattern ([4]; high temperature (60° C., RH 75% ± 5%), high humidity (25° C., RH 90% ± 5%) or light, 30 days): basically unchanged
Structure (SMILES): Cc1nc(-c2cnc(N3CCN(CCCc4c[nH]c5ccc(C#N)cc45)CC3)nc2)sc1C(N)=O [Example 2, 2-(2-(4-(3-(5-cyano-1H-indol-3-yl)propyl)piperazin-1-yl)pyrimidin-5-yl)-4-methylthiazol-5-carboxamide]
Conclusion (hygroscopicity feature) (Hygroscopicity test): Slightly hygroscopicity (Less than 2% but not less than 0.2%)

Crystal form (XRPD) after stirring in water ([1]; listed as phosphate crystal form B): crystal form changed
Structure (SMILES): Cc1nc(-c2cnc(N3CCN(CCCc4c[nH]c5ccc(C#N)cc45)CC3)nc2)sc1C(N)=O [Example 3, 2-(2-(4-(3-(5-cyano-1H-indol-3-yl)propyl)piperazin-1-yl)pyrimidin-5-yl)-4-methylthiazol-5-carboxamide]

Crystal form (XRPD) after stirring in water ([1]; listed as phosphate crystal form C): crystal form changed
Structure (SMILES): Cc1nc(-c2cnc(N3CCN(CCCc4c[nH]c5ccc(C#N)cc45)CC3)nc2)sc1C(N)=O [Example 4, 2-(2-(4-(3-(5-cyano-1H-indol-3-yl)propyl)piperazin-1-yl)pyrimidin-5-yl)-4-methylthiazol-5-carboxamide]

Crystal form (XRPD) after stirring in water ([1]; listed as phosphate crystal form H): crystal form changed
Structure (SMILES): Cc1nc(-c2cnc(N3CCN(CCCc4c[nH]c5ccc(C#N)cc45)CC3)nc2)sc1C(N)=O [Example 6, 2-(2-(4-(3-(5-cyano-1H-indol-3-yl)propyl)piperazin-1-yl)pyrimidin-5-yl)-4-methylthiazol-5-carboxamide]

Crystal form (XRPD) after stirring in water ([1]; listed as phosphate crystal form G): crystal form changed
Structure (SMILES): Cc1nc(-c2cnc(N3CCN(CCCc4c[nH]c5ccc(C#N)cc45)CC3)nc2)sc1C(N)=O [Example 5, 2-(2-(4-(3-(5-cyano-1H-indol-3-yl)propyl)piperazin-1-yl)pyrimidin-5-yl)-4-methylthiazol-5-carboxamide]

Reference: patent publication US20230312551A1, “SALT OF 2-(SUBSTITUTED PYRIMIDINYL) THIAZOLE CARBOXAMIDE COMPOUND, AND COMPOSITION AND USE THEREOF” (SUNSHINE LAKE PHARMA CO., LTD., priority 2020, published 2023)
